Assay results as given in patent publication US10113968B2, “Specific detection and quantification of cardiolipin and isolated mitochondria by positively charged AIE fluorogens and method of manufacturing thereof” (priority 2013, dated 2018).

Experiments:
[1] = Fluorescence response to vesicles of different single mitochondrial lipids; details: 20% TOCL, 100% DOPC, 40% DPPE, 2% soy PI, 1% DOPS, 2% SM, rest DOPC; [dye]=10 μM; [lipid]total=22 μM
Protocol: (§1) Emission spectra of (C) TTAPE-Me and (D) NAO with CL-containing and CL-free all-component vesicles are shown. (E) Bar chart of the change in fluorescence intensity shown in panels C and D (red: CL-containing vesicles, blue: CL-free vesicles). [dye]=10 μM; [lipid]total=22 μM; for TTAPE-Me: λex=350 nm and λem=480 nm; for NAO: λex=499 nm and λem=530 nm.
To further evaluate the specificity of TTAPE-Me towards CL, the response of TTAPE-Me to other major lipids found on mitochondrial membranes was examined. The other major lipids evaluated were 1,2-dipalmitoleoyl-sn-glycero-3-phosphoethanolamine (DPPE):
Six different types of LUVs were fabricated and were composed of each of the above lipids and TOCL and DOPC at the exact percentage as mitochondrial membrane, with the remaining percentage of each type of LUV filled by DOPC.
While DOPS and PI are also negatively charged, they carry only one charge per molecule and share only 1% and 2% of the total mitochondrial membrane lipids, respectively (CL for ˜20%).

[2] = background statement; cited from earlier work
[3] = Fluorescence response to CL-containing and CL-free all-component LUVs; details: [dye]=10 μM
Protocol: as §1
Meanwhile, to mimic the mitochondrial membranes, CL-containing and CL-free all-component LUVs were prepared. The CL-containing and CL-free all-component LUVs were composed by the mixture of all the above mentioned lipids at their physiological ratios (FIG. 9A-9B). […] With the CL-containing LUVs, the greenish-blue fluorescence is enhanced by over 3-fold (FIGS. 7C & E). Parallel experiments were conducted with NAO as the probe. NAO is a turn-off sensor whose fluorescence is decreased in the presence of CL (FIG. 7D). However, CL is not the only lipid that induces the decrease of NAO signals—other lipids such as DPPE, PI, or DOPS, can also induce the decrease of NAO signals to a large extent (FIG. 7B).

isolated mitochondria = test: Quantification and staining of isolated yeast mitochondria by fluorescence; set-up: species or system S. cerevisiae strain YPH 500; details: SEM buffer pH 7.2; [dye]=10 μM; λex=350 nm; emission at 480 nm
From the text: Individual mitochondria from S. cerevisiae strain YPH 500 have been isolated and calibrated by Biuret test. […] In contrast, time-consuming and intricate procedures are involved when using NAO for the quantification of isolated mitochondria. The isolated mitochondria are fixed by formaldehyde, followed by multiple rinsing, centrifugation and resuspension steps. Further, the signal-to-noise ratio by using NAO is much smaller, likely due to the strong background of NAO in solution.

[4] = Fluorescence response of dye to CL-containing (TOCL/DOPC) and CL-free (DOPC) LUVs; details: for emission with CL-containing vesicles: TOCL/DOPC 1:1, 25 mM HEPES pH 7.4, λex=350 nm
Protocol: CL-containing vesicles are composed of TOCL/DOPC (1:1 molar ratio), and CL-free vesicles are composed of pure DOPC, respectively, in a 25 mM HEPES buffer at pH 7.4. [dye]=10 μM; [lipid]total=22 μM; λex=350 nm.
FIG. 3A is a plot of the fluorescence enhancement (I/I0−1) of TTAPE-Me at 480 nm with CL-containing and CL-free vesicles.
FIG. 3B is the linear region of the I/I0−1 value versus CL concentration. [dye]=10 μM; λex=350 nm.
FIG. 4B is a plot of the fluorescence enhancement at 480 nm versus CL content. [dye]=10 μM; [lipid]total=22 μM; λex=350 nm.
CL-containing and CL-free vesicles are composed of TOCL/DOPC (1:1 molar ratio) and pure DOPC, respectively, in a 25 mM HEPES buffer at pH 7.4. [dye]=10 μM; [lipid]total=22 μM; λex=350 nm.
The fluorescence enhancement (I/I0−1) of TTAPE-Me at 480 nm is in a linear fashion in the CL concentration of 0-10 μM (FIG. 3B), which lies in the physiological range of CL in mitochondrial membrane. Linear detection of CL can also be obtained with the varying content of TOCL (2-50% TOCL) in the vesicles (FIG. 4A-4B). The results imply that flexible TTAPE-Me to CL ratio is allowed in the detection and quantification of CL. In contrast, conventional NAO requires strict 2:1 ratio of NAO/CL for quantitative measurement. Moreover, the detection of CL can be done immediately upon mixing the vesicles with the probe without any extra treatment.
To determine whether TTAPE-Me can specifically detect CL, two types of large unilamellar vesicles (LUVs) 100-200 nm in diameter were prepared (FIG. 2A-2B). The CL-free vesicles were prepared by pure 1,2-dioleoyl-sn-glycero-[…] (DOPC), which is the most abundant phospholipid in eukaryotic membranes. CL-containing vesicles were fabricated by the mixture of 1,1′,2,2′-tetraoleoyl cardiolipin (TOCL) and DOPC, in which the zwitterionic DOPC is used to stabilize the vesicles.

[5] = Isothermal titration calorimetry (ITC) of CL-containing vesicles with TTAPE-Me; type: binding; details: 25° C., CL-containing vesicles TOCL/DOPC 1:1, curve fitting, read-out: dissociation constant
Protocol: [dye]=10 μM; [lipid]total=22 μM; λex=350 nm. (B) Job plot for determination of the binding stoichiometry of TTAPE-Me to CL-containing vesicles. The total concentration of TTAPE-Me and CL is kept at 20 μM. (C) calorimetric curves for titration of CL-containing vesicles with serial injections of TTAPE-Me at 25° C. (D) Binding isotherm as a function of [TTAPE-Me]/[lipid]total molar ratio. CL-containing vesicles are composed of TOCL and DOPC (1:1 molar ratio).
According to the AIE principle, TTAPE-Me is only fluorescent when bound, and thus the fluorescence can report the binding of TTAPE-Me to CL-containing vesicles. The emission intensity varying ratios of TTAPE-Me to CL-containing LUVs is then recorded and correlated to a Job plot (FIG. 5B). The plot has a peak at ˜0.67, corresponding to a 2:1 binding ratio for TOCL to TTAPE-Me. The binding ratio perfectly matches the charge ratio, providing further support that the binding of TTAPE-Me towards CL is primarily driven by electrostatic interaction. […] The binding curve was generated by integration of the area of each injection peak followed by the subtraction of the dilution heat of dye molecules (FIG. 5D).

pUC 18 DNA, 2686 bp = test: Fluorescence of TTAPE-Me in the presence of plasmid DNA; details: wide range of DNA concentrations; [dye]=10 μM; λex=350 nm
Protocol: (TTAPE-Me with CL-containing LUVs is shown for comparison) [dye]=10 μM; λex=350 nm.
On the other hand, one might think that the negatively charged mitochondrial DNA (mtDNA) may interfere with the detection of CL by TTAPE-Me.

[6] = [dye]=10 μM, [lipid]total=22 μM

SMILES | fluorescence response to vesicles of different lipid contents (selectivity) [1] | water-solubility [2] | fluorescence in the presence of CL (all-component LUVs) ([3]; λex=499 nm, λem=530 nm) | relation of fluorescence intensity to mitochondria concentration (isolated mitochondria) | emission with CL-containing vesicles [4, 6] | fluorescence with CL-containing vesicles on increase of NaCl concentration [4, 6] | emission with CL-free vesicles ([4]; pure DOPC vesicles, increasing total lipid concentration) | emission spectrum with CL-free all-component LUVs ([3]; [lipid]total=22 μM) | fluorescence enhancement with CL-containing all-component LUVs ([3]; [lipid]total=22 μM, λex=350 nm, λem=480 nm) | Kd [5] [nM] | fluorescence in the presence of plasmids (pUC 18 DNA, 2686 bp)
CCCCCCCCC[n+]1c2cc(N(C)C)ccc2cc2ccc(N(C)C)cc21.[Br-] [NAO, 10-N-nonyl acridine orange, reference compound] | poor selectivity | poor water-solubility | decreased | – | – | – | – | – | – | – | –
C[N+](C)(C)CCOc1ccc(C(=C(c2ccc(OCC[N+](C)(C)C)cc2)c2ccc(OCC[N+](C)(C)C)cc2)c2ccc(OCC[N+](C)(C)C)cc2)cc1.[Br-].[Br-].[Br-].[Br-] [TTAPE-Me, 1,1,2,2-tetrakis[4-(2-trimethylammonio-ethoxy)phenyl]ethene tetrabromide] | selectively turned on with the TOCL vesicles | – | – | linear relationship | turned on | diminishes | remains rather weak | remains identical to that of the free dye in buffer | over 3 fold | 2080 | no fluorescence enhancement
O=S(=O)([O-])CCCOc1ccc(/C(=C(\c2ccccc2)c2ccc(OCCCS(=O)(=O)[O-])cc2)c2ccccc2)cc1.[Na+].[Na+] [BSPOTPE, reference compound] | – | – | – | – | no remarkable fluorescence enhancement | – | – | – | – | – | –
